From ChEMBL document CHEMBL1201862, “PubChem BioAssay data set” (2004)
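Values below derive from 48-hour exposures of cells grown in 96-well plates, with endpoints linearly interpolated between the two concentrations bracketing the appropriate inhibition level. Here, GI50 denotes the concentration required for 50% inhibition of growth.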 Activity calls are given as the source filed them. No stated cut-off is given here; in the data, active = GI50 up to about 1.1 µM and inactive = higher.

Key:
Assay in all cases: growth of human tumour cells (NCI), 48 h
OVCAR-4 = tested on: OVCAR-4
NCI-H23 = tested on: NCI-H23
MDA-MB-435 = tested on: MDA-MB-435
NCI-H460 = tested on: NCI-H460
PC-3 = tested on: PC-3
UACC-62 = tested on: UACC-62
SNB-19 = tested on: SNB-19
HL-60 = tested on: HL-60
SF-295 = tested on: SF-295
MCF7 = tested on: MCF7
KM12 = tested on: KM12
SW-620 = tested on: SW-620
ACHN = tested on: ACHN
CAKI-1 = tested on: CAKI-1
HT-29 = tested on: HT-29
UACC-257 = tested on: UACC-257
HOP-92 = tested on: HOP-92
OVCAR-5 = tested on: OVCAR-5

Measured: GI50

Cn1c(=O)c2c(ncn2CCNC(CO)C(O)c2ccc([N+](=O)[O-])cc2)n(C)c1=O (stereo unspecified)
inactive: OVCAR-4 > 100 µM | NCI-H23 > 100 µM | MDA-MB-435 > 100 µM | NCI-H460 > 100 µM | PC-3 > 100 µM | UACC-62 > 100 µM | SNB-19 > 100 µM | HL-60 > 100 µM | SF-295 > 100 µM | MCF7 > 100 µM | KM12 > 100 µM | SW-620 > 10 µM | ACHN > 100 µM | CAKI-1 > 100 µM | HT-29 > 100 µM | UACC-257 > 100 µM | HOP-92 > 100 µM

NS(=O)(=O)c1ccc(NCc2cccc3c(=O)c4ccc(Cl)cc4oc23)cc1
inactive: OVCAR-4 > 95.9 µM | NCI-H23 31.5 µM | MDA-MB-435 19.7 µM | PC-3 31 µM | UACC-62 23.1 µM | SNB-19 8.07 µM | HL-60 3.68 µM | SF-295 59.4 µM | MCF7 8.34 µM | KM12 21.4 µM | SW-620 6.38 µM | OVCAR-5 > 100 µM | ACHN 28.4 µM | CAKI-1 41 µM | HT-29 31.4 µM | UACC-257 60.4 µM | HOP-92 12.6 µM

C=CCO[C@]1(CC=C)C(=O)C(=O)OC1C1COC(C)(C)O1 (stereo partly specified)
inactive: NCI-H23 53.2 µM | MDA-MB-435 36 µM | NCI-H460 65.2 µM | PC-3 44.6 µM | SNB-19 > 100 µM | HL-60 > 10 µM | SF-295 > 100 µM | MCF7 19.1 µM | KM12 18.8 µM | SW-620 18.6 µM | OVCAR-5 > 100 µM | ACHN 16.6 µM | CAKI-1 27.1 µM | HT-29 19.8 µM | UACC-257 30 µM | HOP-92 22.3 µM

CCOC(=O)C(NCc1ccccc1)(NC(=O)c1ccccc1)C(F)(F)F (stereo unspecified)
inactive: OVCAR-4 45.3 µM | NCI-H23 > 100 µM | MDA-MB-435 > 100 µM | PC-3 > 100 µM | UACC-62 > 100 µM | SNB-19 > 100 µM | HL-60 29 µM | SF-295 > 100 µM | MCF7 > 100 µM | KM12 81.5 µM | SW-620 43.6 µM | OVCAR-5 > 100 µM | ACHN > 100 µM | CAKI-1 > 100 µM | HT-29 > 100 µM | UACC-257 90.4 µM | HOP-92 42.3 µM

Cc1ccc(Oc2cc(C)ccc2P(=O)(O)O)cc1
inactive: NCI-H23 > 100 µM | MDA-MB-435 > 100 µM | PC-3 > 100 µM | UACC-62 > 100 µM | SNB-19 > 100 µM | HL-60 > 100 µM | SF-295 > 100 µM | MCF7 > 100 µM | KM12 > 100 µM | SW-620 > 100 µM | CAKI-1 > 100 µM | UACC-257 > 100 µM | HOP-92 > 100 µM

CSc1ccc(C2C(Cl)C(=O)N2NC(=O)c2c(Cl)c(Cl)c(Cl)c(Cl)c2-c2nc3ccccc3[nH]2)cc1 (stereo unspecified)
inactive: NCI-H23 15.6 µM | MDA-MB-435 13.3 µM | PC-3 17.5 µM | UACC-62 29.8 µM | SNB-19 29.7 µM | HL-60 19.1 µM | SF-295 33.1 µM | MCF7 19.3 µM | KM12 16.8 µM | SW-620 25.8 µM | OVCAR-5 22.3 µM | ACHN 24.2 µM | CAKI-1 14.9 µM | HT-29 33.3 µM | UACC-257 27.2 µM | HOP-92 11.5 µM

Clc1ccccc1NN(Cc1ccncc1)c1ccccc1Cl
inactive: OVCAR-4 11.1 µM | NCI-H23 15.6 µM | MDA-MB-435 15.2 µM | PC-3 15 µM | UACC-62 13.2 µM | SNB-19 17.3 µM | HL-60 17 µM | SF-295 16.7 µM | MCF7 22.3 µM | KM12 18 µM | SW-620 16.9 µM | OVCAR-5 17.5 µM | ACHN 16.6 µM | HT-29 12.6 µM | HOP-92 4.6 µM
